{"source": "paper PMC11413853", "about": "“Discovery of VU6007496: Challenges in the Development of an M1 Positive Allosteric Modulator Backup Candidate” (ACS Chemical Neuroscience, 2024)", "key": {"[1]": {"system": "GABAA, Muscimol, Central", "assay": "Eurofins radioligand binding", "parameters": "species or system Rat", "details": "specific binding"}, "[2]": {"system": "Serotonin (5-HT2B)", "assay": "Eurofins radioligand binding", "parameters": "species or system Human", "details": "specific binding"}, "[3]": {"biological_target": "T1, mouse M1 (Mus musculus, UniProt P12657)", "T1 construct": "expressed in transfected cells; host or cells: CHO (stated in general for all functional cell-based assays)", "T1 sequence (P12657 whole entry)": "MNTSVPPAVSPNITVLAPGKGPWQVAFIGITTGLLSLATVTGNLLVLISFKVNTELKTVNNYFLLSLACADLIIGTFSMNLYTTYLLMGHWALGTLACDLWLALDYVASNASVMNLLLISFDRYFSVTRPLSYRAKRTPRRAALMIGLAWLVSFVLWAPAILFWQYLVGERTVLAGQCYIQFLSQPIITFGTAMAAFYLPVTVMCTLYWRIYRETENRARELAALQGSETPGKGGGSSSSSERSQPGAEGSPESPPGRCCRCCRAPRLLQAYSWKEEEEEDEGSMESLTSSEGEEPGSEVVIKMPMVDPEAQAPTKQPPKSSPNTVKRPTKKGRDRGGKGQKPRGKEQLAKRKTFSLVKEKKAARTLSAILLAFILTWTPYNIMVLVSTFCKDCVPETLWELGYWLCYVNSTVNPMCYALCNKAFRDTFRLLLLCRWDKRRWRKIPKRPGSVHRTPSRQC", "assay": "Calcium mobilization assay, mouse M1 PAM", "format": "cell-based", "details": "PAM mode"}, "[4]": {"system": "Glutamate, Kainate", "assay": "Eurofins radioligand binding", "parameters": "species or system Rat", "details": "specific binding"}, "[5]": {"assay": "Hepatocyte MET ID, mouse", "format": "in vitro ADME", "from_the_text": "We typically would not examine mouse hepatocyte MET ID, as mouse was not a safety species for the IND-enabling toxicology package, but with the unusual metabolism profile for human, and the lack of predictive cholinergic tox in the mouse phenotypic assay, we felt this was worthy of exploration. […] Clearly, based on the hepatocyte data, there is a tremendous difference in the concentration of parent 11 and metabolite composition, which sheds light on the mouse-rat disconnect for observed cholinergic toxicity in rat versus the more cholinergic sensitive mouse."}, "[6]": {"system": "Sigma σ1", "assay": "Eurofins radioligand binding", "parameters": "species or system Human", "details": "specific binding"}, "[7]": {"system": "Androgen (Testosterone)", "assay": "Eurofins radioligand binding", "parameters": "species or system Human", "details": "specific binding"}, "[8]": {"system": "Platelet Activating Factor (PAF)", "assay": "Eurofins radioligand binding", "parameters": "species or system Human", "details": "specific binding"}, "[9]": {"system": "Purinergic P2Y, Non-Selective", "assay": "Eurofins radioligand binding", "parameters": "species or system Rat", "details": "specific binding"}, "[10]": {"system": "Rolipram", "assay": "Eurofins radioligand binding", "parameters": "species or system Rat", "details": "specific binding"}, "[11]": {"system": "Potassium Channel [KATP]", "assay": "Eurofins radioligand binding", "parameters": "species or system Hamster", "details": "specific binding"}, "[12]": {"system": "Transporter, GABA", "assay": "Eurofins radioligand binding", "parameters": "species or system Rat", "details": "specific binding"}, "[13]": {"system": "Histamine H1", "assay": "Eurofins radioligand binding", "parameters": "species or system Human", "details": "specific binding"}, "[14]": {"system": "Glutamate, NMDA, Phencyclidine", "assay": "Eurofins radioligand binding", "parameters": "species or system Rat", "details": "specific binding"}, "[15]": {"system": "Prostanoid EP4", "assay": "Eurofins radioligand binding", "parameters": "species or system Human", "details": "specific binding"}, "[16]": {"system": "Serotonin (5-HT1A)", "assay": "Eurofins radioligand binding", "parameters": "species or system Human", "details": "specific binding"}, "[17]": {"system": "Opiate μ (OP3, MOP)", "assay": "Eurofins radioligand binding", "parameters": "species or system Human", "details": "specific binding"}, "[18]": {"system": "T2, hCav3.2", "T2 construct": "Charles River", "assay": "Ion channel current (Charles River Study 200609.WVN)", "format": "cell-based, human", "details": "10 μM; n 4", "from_the_text": "(§1) Table S2. Effects of VU6007496 on Ion Channel Current (Charles River Study 200609.WVN)\n(§2) Ion Channel Conc Mean % Standard Standard n Individual Data\n(§3) (μM) Inhibition Deviation Error Points (% Inhibition)"}, "[19]": {"system": "T3, hHCN2", "T3 construct": "Charles River", "assay": "Ion channel current (Charles River Study 200609.WVN)", "format": "cell-based, human", "details": "10 μM; n 3", "from_the_text": "as §1, §2, §3"}, "[20]": {"system": "T4, hKv1.3", "T4 construct": "Charles River", "assay": "Ion channel current (Charles River Study 200609.WVN)", "format": "cell-based, human", "details": "10 μM; n 4", "from_the_text": "as §1, §2, §3"}, "[21]": {"system": "T5, hKvLQT1/minK", "T5 construct": "Charles River", "assay": "Ion channel current (Charles River Study 200609.WVN)", "format": "cell-based, human", "details": "10 μM; n 4", "from_the_text": "as §1, §2, §3"}, "[22]": {"system": "T6, hNav1.5 (Phasic)", "T6 construct": "Charles River Study 200609.WVN", "assay": "Ion channel current (Charles River Study 200609.WVN)", "format": "cell-based, human", "details": "10 μM, n 4", "from_the_text": "as §1, §2, §3"}, "[23]": {"system": "T7, hKv1.5", "T7 construct": "Charles River", "assay": "Ion channel current (Charles River Study 200609.WVN)", "format": "cell-based, human", "details": "10 μM; n 3", "from_the_text": "as §1, §2, §3"}, "[24]": {"system": "T8, hCav1.2", "T8 construct": "Charles River", "assay": "Ion channel current (Charles River Study 200609.WVN)", "format": "cell-based, human", "details": "10 μM; n 4", "from_the_text": "as §1, §2, §3"}, "[25]": {"system": "T9, hNav1.5 (Tonic)", "T9 construct": "Charles River Study 200609.WVN", "assay": "Ion channel current (Charles River Study 200609.WVN)", "format": "cell-based, human", "details": "10 μM, n 4", "from_the_text": "as §1, §2, §3"}}}
{"smiles": "Cn1ccc(-c2ccc(Cc3cc(C(=O)NC4CCOCC4)nc4ccn(C)c34)cc2)n1", "note": "[compound 11]", "values": [{"measurement": "% Inhibition at 10 µM", "setting": "[1]", "value": -1, "unit": "%"}, {"measurement": "% Inhibition at 10 µM", "setting": "[2]", "value": 7, "unit": "%"}, {"measurement": "EC50", "setting": "[3]", "value": 92, "unit": "nM"}, {"measurement": "mouse M1 PAM ACh max", "setting": "[3]", "value": 66, "unit": "%"}, {"measurement": "% Inhibition at 10 µM", "setting": "[4]", "value": -19, "unit": "%"}, {"measurement": "extent of metabolism, mouse hepatocytes", "setting": "[5]", "value": 95.4, "unit": "%"}, {"measurement": "% Inhibition at 10 µM", "setting": "[6]", "value": -8, "unit": "%"}, {"measurement": "% Inhibition at 10 µM", "setting": "[7]", "value": -24, "unit": "%"}, {"measurement": "% Inhibition at 10 µM", "setting": "[8]", "value": -13, "unit": "%"}, {"measurement": "% Inhibition at 10 µM", "setting": "[9]", "value": -9, "unit": "%"}, {"measurement": "% Inhibition at 10 µM", "setting": "[10]", "value": 10, "unit": "%"}, {"measurement": "% Inhibition at 10 µM", "setting": "[11]", "value": 11, "unit": "%"}, {"measurement": "% Inhibition at 10 µM", "setting": "[12]", "value": -17, "unit": "%"}, {"measurement": "% Inhibition at 10 µM", "setting": "[13]", "value": 5, "unit": "%"}, {"measurement": "% Inhibition at 10 µM", "setting": "[14]", "value": 7, "unit": "%"}, {"measurement": "% Inhibition at 10 µM", "setting": "[15]", "value": 16, "unit": "%"}, {"measurement": "% Inhibition at 10 µM", "setting": "[16]", "value": 7, "unit": "%"}, {"measurement": "% Inhibition at 10 µM", "setting": "[17]", "value": -4, "unit": "%"}, {"measurement": "Mean % Inhibition", "setting": "[18]", "value": 4.2, "unit": "%"}, {"measurement": "Mean % Inhibition", "setting": "[19]", "value": 4.9, "unit": "%"}, {"measurement": "Mean % Inhibition", "setting": "[20]", "value": 16.5, "unit": "%"}, {"measurement": "Mean % Inhibition", "setting": "[21]", "value": 13.5, "unit": "%"}, {"measurement": "Mean % Inhibition", "setting": "[22]", "value": 11.4, "unit": "%"}, {"measurement": "Mean % Inhibition", "setting": "[23]", "value": 8.7, "unit": "%"}, {"measurement": "Mean % Inhibition", "setting": "[24]", "value": 12.8, "unit": "%"}, {"measurement": "Mean % Inhibition", "setting": "[25]", "value": 3.9, "unit": "%"}]}
